Test results reported in US7888285B2, “2,4,6-phenyl substituted cyclic ketoenols” (Bayer CropScience AG, priority 2003, dated 2011).

Tests used:
Type in all cases: in vivo
[1] = tested on: Abultilon; test: Post-emergence test; conditions: greenhouse, 250 g a.i./ha, scored after three weeks
Description: (§1) To prepare a suitable active compound preparation, 1 part by weight of active compound is mixed with the stated amount of solvent, the stated amount of emulsifier is added, and the concentrate is diluted with water to the desired concentration.
(§2) Test plants with a height of 5-15 cm are sprayed with the active compound preparation in such a way that the amounts of active compound desired in each case are applied per unit area. The concentration of the spray mixture is chosen in such a way that the amounts of active compound desired in each case are applied in 1 000 1 of water/ha.
(§3) After three weeks, the degree of damage of the plants is scored in % damage in comparison with the development of the untreated control.
(§4) The figures denote: • 0% =no effect (like untreated control) • 100% =total destruction

[2] = tested on: Alopecurus; test: Post-emergence test; conditions: greenhouse, 250 g a.i./ha, scored after three weeks
Description: as §1, §2, §3, §4

[3] = tested on: Avena fatua; test: Post-emergence test; conditions: greenhouse, 250 g a.i./ha, scored after three weeks
Description: as §1, §2, §3, §4

[4] = tested on: Echinochloa; test: Post-emergence test; conditions: greenhouse, 250 g a.i./ha, scored after three weeks
Description: as §1, §2, §3, §4

[5] = tested on: Setaria; test: Post-emergence test; conditions: greenhouse, 250 g a.i./ha, scored after three weeks
Description: as §1, §2, §3, §4

[6] = tested on: Sinapis; test: Post-emergence test; conditions: greenhouse, 250 g a.i./ha, scored after three weeks
Description: as §1, §2, §3, §4

[7] = tested on: sugar beet; test: Post-emergence test; conditions: greenhouse, 250 g a.i./ha, scored after three weeks
Description: as §1, §2, §3, §4

[8] = tested on: Abultilon; test: Pre-emergence test; conditions: greenhouse, 250 g a.i./ha, scored after three weeks
Description: (§5) [table] To prepare a suitable active compound preparation, 1 part by weight of active compound is mixed with the stated amount of solvent, the stated amount of emulsifier is added, and the concentrate is diluted with water to the desired concentration. Seeds of the test plant are sown in normal soil. After approximately 24 hours, the soil is sprayed with the active compound preparation in such a way that the amounts of active compound desired in each case are applied per unit area. The concentration of the spray mixture is chosen in such a way that the amounts of active compound desired in each case are applied in 1 000 1 of water/ha. After three weeks, the degree of damage of the plants is scored in % damage in comparison with the development of the untreated control.

[9] = tested on: Alopecurus; test: Pre-emergence test; conditions: greenhouse, scored after three weeks
Description: as §5

[10] = tested on: Avena fatua; test: Pre-emergence test; conditions: greenhouse, 250 g a.i./ha, scored after three weeks
Description: as §5

[11] = tested on: Echinochloa; test: Pre-emergence test; conditions: greenhouse, 250 g a.i./ha, scored after three weeks
Description: as §5

[12] = tested on: Setaria; test: Pre-emergence test; conditions: greenhouse, scored after three weeks
Description: as §5

[13] = tested on: Sinapis; test: Pre-emergence test; conditions: greenhouse, 250 g a.i./ha, scored after three weeks
Description: as §5

[14] = tested on: Meloidogyne incognita; test: Meloidogyne test; conditions: 20 ppm, with reference to gall formation
Description: (§6) To prepare a suitable active compound preparation, 1 part by weight of active compound is mixed with the stated amounts of solvent and emulsifier and the concentrate is diluted with water to the desired concentration.
Containers are filled with sand, active compound solution, Meloidogyne incognita egg/larval suspension and lettuce seeds. The lettuce seeds germinate and the plantlets develop. The galls develop on the roots.
After the desired time, the nematicidal efficacy is determined I n % with reference to gall formation. 100% means that no galls were found; 0% means that the number of galls on the treated plants corresponds to that of the untreated control.

[15] = tested on: green peach aphid (Myzus persicae); test: Myzus test; conditions: 1000 ppm
Description: To prepare a suitable active compound preparation, 1 part by weight of active compound is mixed with the stated amounts of solvent and emulsifier and the concentrate is diluted with emulsifier-containing water to the desired concentration.
Cabbage leaves (Brassica oleracea), which are severely infested with the green peach aphid (Myzus persicae) are treated by immersing them into the active compound preparation of the desired concentration.
After the desired time, the destruction rate is determined in %. 100% means that all of the aphids have been destroyed; 0% means that none of the aphids have been destroyed.

[16] = tested on: larvae of the mustard beetle (Phaedon cochleariae); test: Phaedon larvae test; conditions: 1000 ppm
Description: [table] To produce a suitable preparation of active compound, 1 part by weight of active compound is mixed with the stated amounts of solvent and emulsifier, and the concentrate is diluted with emulsifier-containing water to the desired concentration. Cabbage leaves (Brassica oleracea) are treated by being dipped into the preparation of active compound of the desired concentration and are infested with the larvae of the mustard beetle (Phaedon cochleariae) while the leaves are still moist.

[17] = tested on: greenhouse red spider mite (Tetranychus urticae); test: Tetranychus test (OP-resistant/immersion treatment)
Description: (§7) To produce a suitable preparation of active compound, 1 part by weight of active compound is mixed with the stated amounts of solvent and emulsifier, and the concentrate is diluted with emulsifier-containing water to the desired concentration.
Bean plants (Phaseolus vulgaris) which are severely infested with all stages of the greenhouse red spider mite (Tetranychus urticae) are dipped into a preparation of the active compound of the desired concentration.
After the desired time, the activity in % is determined. 100% means that all the spider mites have been killed; 0% means that none of the spider mites have been killed.

[18] = tested on: Cassia; test: Pre-emergence test; conditions: greenhouse, 125 g a.i./ha, scored after three weeks
Description: as §5

[19] = tested on: Lolium; test: Pre-emergence test; conditions: greenhouse, 125 g a.i./ha, scored after three weeks
Description: as §5

[20] = tested on: Matricaria; test: Pre-emergence test; conditions: greenhouse, 125 g a.i./ha, scored after three weeks
Description: as §5

[21] = tested on: Viola; test: Pre-emergence test; conditions: greenhouse, 125 g a.i./ha, scored after three weeks
Description: as §5

[22] = tested on: sugar beet; test: Pre-emergence test; conditions: greenhouse, 125 g a.i./ha, scored after three weeks
Description: as §5

[23] = tested on: black bean aphids (Aphis fabae); test: Aphis test, contact action; conditions: 1000 ppm
Description: as §6
Shoots of young field bean plants (Vicia faba) which are severely infested with black bean aphids (Aphis fabae) are treated by being dipped into the active compound preparation of the desired concentration.
After the desired period of time, the destruction is determined in %. 100% means that all of the aphids have been destroyed; 0% means that no aphids have been destroyed.

[24] = tested on: green rice leafhopper (Nephotettix cincticeps); test: Nephotettix test; conditions: 1000 ppm
Description: To produce a suitable preparation of active compound, 1 part
by weight of active compound is mixed with the stated amounts of solvent and emulsifier, and the concentrate is diluted with emulsifier-containing water to the desired concentration.
Rice seedlings (Oryza sativa) are treated by being dipped into the preparation of active compound of the desired concentration and are infested with the green rice leafhopper (Nephotettix cincticeps) while the leaves are still moist.
After the desired time, the destruction in % is determined. 100% means that all the leafhoppers have been killed; 0% means that none of the leafhoppers have been killed.

[25] = tested on: caterpillars of the diamond-back moth (Plutella xylostella); test: Plutella test; conditions: 1000 ppm
Description: as §7
Cabbage leaves (Brassica oleracea) are treated by being dipped into the preparation of active compound of the desired concentration and are infested with caterpillars of the diamond-back moth (Plutella xylostella) while the leaves are still moist.
(§8) After the desired time, the destruction in % is determined. 100% means that all the caterpillars have been killed; 0% means that none of the caterpillars have been killed.

[26] = tested on: caterpillars of the armyworm (Spodoptera frugiperd); test: Spodoptera frugiperda test; conditions: 1000 ppm
Description: as §7
Cabbage leaves (Brassica oleracea) are treated by being dipped into the preparation of active compound of the desired concentration and are infested with caterpillars of the armyworm (Spodoptera frugiperd) while the leaves are still moist.
as §8

CCc1cc(Cl)cc(OC)c1C1=C(O)C2(CCC(OC)CC2)NC1=O (single isomer, unassigned) [Example I-1-a-3]
degree of damage, Abultilon [1]: 70% | degree of damage, Alopecurus [2]: 100% | degree of damage, Avena fatua [3]: 100% | degree of damage, Echinochloa [4]: 100% | degree of damage, Setaria [5]: 100% | degree of damage, Sinapis [6]: 80% | degree of damage, sugar beet [7]: 0% | degree of damage, Abultilon [8]: 80% | degree of damage, Alopecurus ([9]; 250 g a.i./ha): 80% | degree of damage, Avena fatua [10]: 100% | degree of damage, Echinochloa [11]: 100% | degree of damage, Setaria ([12]; 250 g a.i./ha): 100% | degree of damage, Sinapis [13]: 80% | Destruction in % after 14 d [14]: 98% | Destruction in % after 6 d [15]: 90% | Destruction in % after 7 d [16]: 80% | Destruction in % after 7 d ([17]; 100 ppm): 80%

COc1cc(Cl)cc(C)c1C1=C(O)C2(CCC(C)CC2)NC1=O (centres unmarked) [Example I-1-a-1]
degree of damage, Alopecurus [2]: 100% | degree of damage, Avena fatua [3]: 100% | degree of damage, Setaria [5]: 100% | degree of damage, sugar beet [7]: 0% | degree of damage, Alopecurus ([9]; 125 g a.i./ha): 100% | degree of damage, Cassia [18]: 100% | degree of damage, Lolium [19]: 100% | degree of damage, Matricaria [20]: 90% | degree of damage, Setaria ([12]; 125 g a.i./ha): 100% | degree of damage, Viola [21]: 90% | degree of damage, sugar beet [22]: 0% | Destruction in % after 6 d [23]: 100% | Destruction in % after 6 d [15]: 95% | Destruction in % after 6 d [24]: 100% | Destruction in % after 7 d [16]: 100% | Destruction in % after 7 d [25]: 100% | Destruction in % after 7 d [26]: 100% | Destruction in % after 7 d ([17]; 1000 ppm): 100%
